In ChEMBL document CHEMBL1135901, “Molecular dynamics and free energy analyses of cathepsin D-inhibitor interactions: insight into structure-based ligand design” (J Med Chem, 2002):

Target: Cathepsin D (Homo sapiens, UniProt P07339)
Test: Inhibitory activity of compound against human Cathepsin D

Cathepsin D, sequence (P07339 65-162 limits assumed): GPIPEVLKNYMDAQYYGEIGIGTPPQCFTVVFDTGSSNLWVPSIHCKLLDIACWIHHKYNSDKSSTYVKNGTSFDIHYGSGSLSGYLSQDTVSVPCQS
Cathepsin D, sequence (P07339 169-412 limits assumed): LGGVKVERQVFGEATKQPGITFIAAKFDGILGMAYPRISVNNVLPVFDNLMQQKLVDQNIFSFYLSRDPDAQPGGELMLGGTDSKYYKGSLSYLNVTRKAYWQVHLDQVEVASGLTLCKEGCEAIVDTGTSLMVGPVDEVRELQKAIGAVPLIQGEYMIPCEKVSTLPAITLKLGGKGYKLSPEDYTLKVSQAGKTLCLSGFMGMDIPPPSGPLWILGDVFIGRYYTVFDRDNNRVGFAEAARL

Row | Ki [nM] | Structure (SMILES)
1 | > 100000 | O=C(/C=C/c1c(Cl)cccc1Cl)N[C@@H](Cc1ccccc1)[C@@H](O)CN(CCc1ccccn1)C(=O)COc1c(Cl)cc(Cl)cc1Cl
2 | ~10000 | O=C(/C=C/c1c(Cl)cccc1Cl)N[C@@H](Cc1ccccc1)[C@@H](O)CN(CCc1cccs1)C(=O)CCc1ccc(Cl)c(Cl)c1
3 | 3 | O=C(COc1ccc(Cl)cc1Cl)N[C@@H](Cc1ccccc1)[C@@H](O)CN(CCc1ccc2c(c1)OCO2)C(=O)CCN1C(=O)c2ccccc2C1=O
4 | 5.2 | COc1cc(Br)c(C(=O)N[C@@H](Cc2ccccc2)[C@@H](O)CN(CCc2ccc(Cl)cc2Cl)C(=O)CCN2C(=O)c3ccccc3C2=O)cc1OC
5 | > 5000 | O=C(COc1cc(Cl)c(Cl)cc1Cl)N[C@@H](Cc1ccccc1)[C@H](O)CN(CCc1ccc2c(c1)OCO2)C(=O)CCN1C(=O)c2ccccc2C1=O
6 | 73 | O=C(COc1c(Cl)cc(Cl)cc1Cl)N[C@@H](Cc1ccccc1)[C@@H](O)CN(CCc1ccc2c(c1)OCO2)C(=O)CCN1C(=O)c2ccccc2C1=O
